Measurements from EP4759816A1, “UREA-CONTAINING […] ß-LACTAMASE INHIBITOR, PREPARATION METHOD THEREFOR AND USE THEREOF” (priority 2023, dated 2025).
Like-named read-outs stand apart in the source and are kept apart here.

Experiments:
[1] = tested on: E. Coli NCTC 13353; test: MIC by broth microdilution, β-lactam antibiotic combined with β-lactamase inhibitor; type: cell-based; conditions: Escherichia coli, NCTC13353; E. Coli NCTC 13353, expresses CTX-M-15; MIC of the antibiotic, inhibitor fixed at 4 mg/L; read-out: Antibacterial Activity (MIC50)
Method: (§1) The minimum inhibitory concentration (MIC) of the Example compounds (at a concentration of 4 mg/L) in combination with β-lactam antibiotics (ceftazidime, cefepime, meropenem, imipenem, aztreonam) against bacterial strains was tested using the broth microdilution method recommended by the Clinical and Laboratory Standards Institute (CLSI, formerly NCCLs) [Methods for Dilution Antimicrobial Susceptibility Tests for Bacteria That Grow Aerobically; Approved Standard-tenth Edition M07-A10, 2015]. The specific test materials and procedures are as follows.
(§2) The standard strains used in this experiment were purchased ATCC strains. The clinical strains used were strains resistant to some or all marketed β-lactam antibiotics, isolated and identified by domestic public hospitals, and the types of β-lactamases they express were determined. Before the experiment, each bacterial strain was purified by streaking single colonies on an agar plate, and fresh bacterial cultures grown overnight at 37°C were appropriately diluted for the experiment.
(§3) CAMHB (Cation Adjusted Mueller-Hinton) medium, incubated at 35-37°C in air for 16-20 h.
(§4) CAMHB Formula: Acid-hydrolyzed casein (17.5 g/L), beef extract (3.0 g/L), soluble starch (1.5 g/L), calcium ions (20-25 mg/L), magnesium ions (10-12.5 mg/L).
(§5) Stock solutions at 4 times the working concentration were prepared in CAMHB broth for the combinations of antibiotics (ceftazidime, cefepime, meropenem, aztreonam) and Example compounds. The final concentrations of antibiotics in the stock solutions were 256, 128, 64, 32, 16, 8, 4, 2, 1, 0.5, 0.25, 0.125 mg/L, respectively. The final concentration of avibactam, relebactam, or Example compounds was 4 mg/L.
(§6) Several colonies were picked from an 18-24 h cultured agar plate and suspended directly in sterile physiological saline to prepare a bacterial suspension. The turbidity of the suspension was adjusted to 0.5 McFarland standard. The adjusted bacterial suspension was diluted with CAMHB broth to (4-8) × 10^5 CFU/mL and used immediately.
(§7) Test Group: 50 µL of the antibiotic (ceftazidime, cefepime, meropenem, imipenem, aztreonam) stock solution and 50 µL of the β-lactamase inhibitor (avibactam, relebactam, or Example compound) stock solution were added to wells 1 to 12 of a sterile 96-well polystyrene plate. Then, 100 µL of CAMHB containing the test bacterial suspension was added to each well, making a total volume of 200 µL per well. The final drug concentrations in the wells were 64, 32, 16, 8, 4, 2, 1, 0.5, 0.25, 0.125, 0.06, 0.03 mg/L, respectively. […]
(§8) The inoculated 96-well polystyrene plates were sealed and placed in an incubator at 35-37°C for 16-20 h before reading the results. […]

[2] = tested on: E. coli ATCC 35218; test: as above; type: cell-based; conditions: Escherichia coli, ATCC35218; E. coli ATCC 35218, expresses TEM-1; MIC of the antibiotic, inhibitor fixed at 4 mg/L; read-out: Antibacterial Activity (MIC50)
Method: as §1, §2, §3, §4, §5, §6, §7, §8

[3] = tested on: E. coli ATCC 25922; test: as above; type: cell-based; conditions: Escherichia coli, ATCC25922; E. coli ATCC 25922, β-lactamase expressed: -; MIC of the antibiotic, inhibitor fixed at 4 mg/L; read-out: Antibacterial Activity (MIC50)
Method: as §1, §2, §3, §4, §5, §6, §7, §8

[4] = tested on: P. aeruginosa ATCC 27853; test: as above; type: cell-based; conditions: Pseudomonas aeruginosa, ATCC27853; P. aeruginosa ATCC 27853, expresses AmpC; MIC of the antibiotic, inhibitor fixed at 4 mg/L; read-out: Antibacterial Activity (MIC50)
Method: as §1, §2, §3, §4, §5, §6, §7, §8

[5] = tested on: K.Pneumoniae BAA-1705; test: as above; type: cell-based; conditions: Klebsiella pneumoniae, BAA1705; K.Pneumoniae BAA-1705, expresses KPC-2; MIC of the antibiotic, inhibitor fixed at 4 mg/L; read-out: Antibacterial Activity (MIC50)
Method: CAMHB (Cation Adjusted Mueller-Hinton) medium, incubated at 35-37°C in air for 16-20 h. […]

[6] = target: TEM-1 (Escherichia coli, UniProt P62593); test: β-Lactamase inhibitory activity test, nitrocefin substrate; type: biochemical
Method: (§9) The IC50 of β-lactamase inhibitors against β-lactamases was tested using nitrocefin as the substrate. The enzyme and serially diluted β-lactamase inhibitor were incubated in 50 mM phosphate buffer (containing 0.1 mg/mL bovine serum albumin) at 37°C for 10 minutes. The reaction was initiated by adding 100 µM nitrocefin, and the reaction temperature was set to 37°C. The absorbance at 490 nm was recorded every minute for a total of 1 hour. The initial reaction rate was calculated, and the IC50 was calculated using GraphPad Prism software. Table 4. Inhibitory activity (IC50, mg/L) of compounds against β-lactamases

[7] = target: OXA-10 (Pseudomonas aeruginosa, UniProt P14489); test: as above; type: biochemical
Method: as §9

[8] = target: OXA-23 (Acinetobacter baumannii, UniProt Q9L4P2); test: as above; type: biochemical
Method: as §9

[9] = target: KPC-2 (Klebsiella pneumoniae, UniProt Q9F663); test: as above; type: biochemical
Method: as §9

[10] = TEM-1, enzyme family A, 100 µM nitrocefin, 37°C, 10 minutes preincubation, read-out: Inhibitory activity (IC50)

OXA-23, sequence (Q9L4P2 18-273): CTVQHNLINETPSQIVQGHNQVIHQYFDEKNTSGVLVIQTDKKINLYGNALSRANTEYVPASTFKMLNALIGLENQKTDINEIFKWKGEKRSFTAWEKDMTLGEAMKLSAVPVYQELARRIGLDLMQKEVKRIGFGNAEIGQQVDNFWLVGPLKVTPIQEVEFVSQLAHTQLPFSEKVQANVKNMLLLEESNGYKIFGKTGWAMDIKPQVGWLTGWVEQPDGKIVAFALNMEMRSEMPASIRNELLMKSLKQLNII
OXA-10, sequence (P14489 20-266): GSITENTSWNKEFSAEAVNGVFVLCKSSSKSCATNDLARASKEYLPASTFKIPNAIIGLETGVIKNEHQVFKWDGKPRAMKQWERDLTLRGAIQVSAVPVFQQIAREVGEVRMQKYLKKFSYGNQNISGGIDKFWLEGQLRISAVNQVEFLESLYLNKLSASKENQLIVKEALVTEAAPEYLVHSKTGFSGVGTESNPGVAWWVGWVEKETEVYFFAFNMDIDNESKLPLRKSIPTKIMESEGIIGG
TEM-1, sequence (P62593 24-286 limits assumed): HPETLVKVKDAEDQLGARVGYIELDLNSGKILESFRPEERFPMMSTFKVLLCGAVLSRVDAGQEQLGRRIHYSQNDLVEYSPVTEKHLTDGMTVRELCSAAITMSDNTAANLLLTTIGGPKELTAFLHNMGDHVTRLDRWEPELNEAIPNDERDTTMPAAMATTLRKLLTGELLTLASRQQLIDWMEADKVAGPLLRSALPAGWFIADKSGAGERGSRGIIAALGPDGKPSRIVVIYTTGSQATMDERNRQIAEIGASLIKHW
KPC-2, sequence (Q9F663 25-293 limits assumed): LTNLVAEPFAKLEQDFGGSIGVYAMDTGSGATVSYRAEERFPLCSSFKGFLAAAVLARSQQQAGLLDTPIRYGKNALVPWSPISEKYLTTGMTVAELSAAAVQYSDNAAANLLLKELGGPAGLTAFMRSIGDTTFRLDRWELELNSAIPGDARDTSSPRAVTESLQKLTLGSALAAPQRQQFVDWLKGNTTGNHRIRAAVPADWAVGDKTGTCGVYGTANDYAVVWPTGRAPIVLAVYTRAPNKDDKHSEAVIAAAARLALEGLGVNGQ

Row | Compound | MIC50 [1] [µg/mL] | MIC50 [2] [µg/mL] | MIC50 [3] [µg/mL] | MIC50 [4] [µg/mL] | MIC50 [5] [µg/mL] | IC50 [6, 10] [µM] | IC50 [7] [µM] | IC50 [8] [µM] | IC50 [9] [µM] | IC50 [6] [µM]
1 | CC(C)(O/N=C(\C(=O)N[C@@H]1C(=O)N2C(C(=O)[O-])=C(C[n+]3ccccc3)CS[C@H]12)c1csc(N)n1)C(=O)O [Ceftazidime] | > 10 | 0.1 to 1 | 0.1 to 1 | 1 to 10 | > 10 |  |  |  |  | 
2 | O=C1N2Cc3c(ccn3S(=O)(=O)c3ccccc3)C(C2)N1OS(=O)(=O)O (centres unmarked) [Example 1 Compound] |  |  |  |  |  | < 1 | < 1 | < 1 | < 1 | 
3 | CS(=O)(=O)n1ccc2c1CN1CC2N(OS(=O)(=O)O)C1=O (centres unmarked) [Example 2 Compound] |  |  |  |  |  | < 1 | < 1 | < 1 | < 1 | 
4 | CS(=O)(=O)n1ccc2c1CN1C[C@@H]2N(OS(=O)(=O)O)C1=O [Example 3 Compound] |  |  |  |  |  | < 1 | < 1 | < 1 | < 1 | 
5 | CCS(=O)(=O)n1ccc2c1CN1C[C@@H]2N(OS(=O)(=O)O)C1=O [Example 4 Compound] |  |  |  |  |  |  |  | 1 to 10 | < 1 | < 1
6 | O=C1N2Cc3c(ccn3S(=O)(=O)c3cccnc3)[C@H](C2)N1OS(=O)(=O)O [Example 10 Compound] |  |  |  |  |  |  |  | < 1 | < 1 | < 1
7 | Cn1cc(S(=O)(=O)n2ccc3c2CN2C[C@@H]3N(OS(=O)(=O)O)C2=O)cn1 [Example 11 Compound] |  |  |  |  |  |  |  | 1 to 10 | < 1 | < 1
8 | CS(=O)(=O)n1ccc2c1C(C(N)=O)N1CC2N(OS(=O)(=O)O)C1=O (centres unmarked) [Example 14 Compound] |  |  |  |  |  |  |  | 10 to 100 | < 1 | < 1
9 | NC(=O)C1c2c(ccn2S(=O)(=O)C2CC2)C2CN1C(=O)N2OS(=O)(=O)O (centres unmarked) [Example 15 Compound] |  |  |  |  |  |  |  | > 100 | > 100 | > 100
